According to US20020169205A1, “Implantation rates after in vitro fertilization, and treatment of infertility and early pregnancy loss with a nitric oxide donor or substrate alone or in combination with progesterone, and a method for contraception with nitric oxide inhibitors in combination with antiprogestins or other agents” (priority 1998, published 2002):

Columns and labels:
implantation = test: Other studies: L-NAME effects on implantation combined with low-dose onapristone; type: in vivo; conditions: onapristone low-dose 0.1-0.3 mg/animal/day together with L-NAME
implantation in rats = test: Effects of L-NAME on implantation in pregnant rats (FIG. 1 and FIG. 2); type: in vivo
Method: The animals were treated with 25 and 50 mg/animal/day L-NAME administered via continuous s.c. infusion from day 1 post coitum (p.c.) until day 7 p.c The autopsy was performed on day 12 p.c.
The animals were treated with 25 and 50 mg/animal/day L-NAME administered via continuous s.c. infusion on day 5-7 (p.c.). The autopsy was performed on either day 9 p.c. or day 12 p.c.
In the experiments whose results are shown in FIG. 1, pregnant rats (n=6/group) were treated with 25 and 50 mg/animal/day L-NAME from day 1 p.c. until day 7 p.c., i.e. during the period of pre-implantation and early implantation (in rats implantation takes place on day 5 p.c. ). The control animals were treated with the vehicle. During autopsy (days 9 and 12 p.c.) the implantation sites were assessed macroscopically, their diameter was measured, and the weights of isolated implantation sites (embryonic and placental tissues) were recorded. FIG. 2 presents results from a second study In pregnant rats in which L-NAME (25 and 50 mg/anilal/day) treatment was performed on days 5-7 p.c., i.e. shortly after nidation had taken place. The autopsy was performed on day 12 p.c. Implantation showing haemorrhagic changes were defined as pathological implantation sites.

uterine blood flow = conditions: low dose aspirin, patients with impeded blood flow; cited from earlier work
[1] = tested on: uterine strips from rats at mid to near term gestation; conditions: cited from earlier work
[2] = 25 and 50 mg/animal/day s.c. infusion, autopsy day 9 or 12 p.c.

CN(C)c1ccc([C@H]2C[C@]3(C)[C@@H](CC[C@]3(O)CCCO)[C@@H]3CCC4=CC(=O)CCC4=C32)cc1 [onapristone]
L-NAME-induced effects on implantation with added antiprogestin (implantation): enhanced

COC(=O)[C@@H](N)CCCNC(=N)N[N+](=O)[O-] [L-NAME, NG-nitro-L-arginine methyl ester]
effect on implantation (implantation in rats; 25 and 50 mg/animal/day continuous s.c. infusion, day 1-7 p.c. or days 5-7 p.c.): profound effect on implantation
size of the implantation sites (implantation in rats; [2]): dose-dependent inhibition
weight of the implantation sites (implantation in rats; [2]): dose-dependent inhibition
pathological changes in the implantation sites (implantation in rats; 25 and 50 mg/animal/day s.c. infusion, haemorrhagic changes defined as pathological): induced pathological changes in the implantation sites (mainly haemorrhages)

CC(=O)Oc1ccccc1C(=O)O [aspirin]
effect on uterine blood flow (uterine blood flow): only marginal

N=C(N)NCCC[C@H](N)C(=O)O [L-arginine]
relaxation of spontaneous activity of uterine strips [1]: rapid and substantial relaxation
